“And” between values parts separate entries of the source, which are not always exact repeats. Equal values may be shown once. Read-outs that look alike come from different tables or passages of the source.
Assays:
[1] = target: T1, Recombinant human Src enzyme (Homo sapiens, UniProt P12931); experiment: Src Kinase Assay (LANCE FRET); format: biochemical
T1 construct: purchased PanVera P3044
Procedure: Recombinant human Src enzyme was obtained from PanVera (P3044). […] Homogeneous fluorescence resonance energy transfer kinase assays were performed using the europium/APC detection format (LANCE, Perkin Elmer). Src enzyme (10 ng) was mixed with biotinylated peptide (final concentration 2 μM), 50 mM Hepes (pH 7.5), 10 mM MgCl2, 20 ug/ml BSA, 0.001% Brij-35 (Sigma), 100 μM ATP, 1% DMSO. The kinase reaction was incubated for 70 min at 37° C. The reaction was stopped with EDTA at a final concentration of 30 mM EDTA/25 mM Hepes (pH 7.5)/10 μg/ml BSA. The mixture was combined with Eu-labeled anti-phosphotyrosine antibody PT66 (Perkin Elmer, AD0068) and Streptavidin Surelight-APC (Perkin Elmer, CR130-100) in 50 mM Hepes (pH 7.5)/20 μg/ml BSA, and incubated for 30 min according to manufacturer's specifications. […] Multiple entries for a given compound indicate that it was tested multiple times.

[2] = target: Rat2 fibroblasts stably transformed with v-Src/Hu c-Src fusion gene (Homo sapiens, UniProt P12931, cells depend on it, form not given); experiment: Anchorage Independent Src-transformed Fibroblast Proliferation Assay; format: cell-based, rat
Chain of Rat2 fibroblasts stably transformed with v-Src/Hu c-Src fusion gene (P12931 whole entry, stated change not applied, the tested form may be a part): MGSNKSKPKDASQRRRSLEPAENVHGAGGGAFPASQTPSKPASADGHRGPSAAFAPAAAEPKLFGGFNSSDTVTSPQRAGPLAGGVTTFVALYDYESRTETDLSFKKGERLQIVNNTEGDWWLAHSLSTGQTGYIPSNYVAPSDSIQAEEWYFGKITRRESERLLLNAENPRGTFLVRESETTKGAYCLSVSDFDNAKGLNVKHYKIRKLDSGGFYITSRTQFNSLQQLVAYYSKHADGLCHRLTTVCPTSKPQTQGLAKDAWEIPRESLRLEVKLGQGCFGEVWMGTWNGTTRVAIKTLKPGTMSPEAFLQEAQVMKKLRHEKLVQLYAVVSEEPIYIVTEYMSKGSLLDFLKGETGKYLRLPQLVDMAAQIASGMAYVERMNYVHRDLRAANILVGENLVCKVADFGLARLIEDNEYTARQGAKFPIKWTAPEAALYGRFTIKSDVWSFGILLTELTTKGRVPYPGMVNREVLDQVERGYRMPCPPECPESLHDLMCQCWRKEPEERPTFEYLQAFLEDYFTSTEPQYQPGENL
Excerpt: Rat2 fibroblasts stably transformed with a plasmid containing a CMV promotor controlled v-Src/Hu c-Src fusion gene in which the catalytic domain of human c-Src was inserted in place of the v-Src catalytic domain in the v-Src gene are used for the measurement of src dependent suspension growth.

Wild type c-Abl = target: T2, Wild type c-Abl (Homo sapiens, UniProt P00519); experiment: Abl Kinase Assay (LANCE FRET); format: biochemical; conditions: 100 μM ATP; read-out: c-Abl enzyme IC50
T2 construct: purchased Panvera P3049
T2 sequence (P00519 whole entry): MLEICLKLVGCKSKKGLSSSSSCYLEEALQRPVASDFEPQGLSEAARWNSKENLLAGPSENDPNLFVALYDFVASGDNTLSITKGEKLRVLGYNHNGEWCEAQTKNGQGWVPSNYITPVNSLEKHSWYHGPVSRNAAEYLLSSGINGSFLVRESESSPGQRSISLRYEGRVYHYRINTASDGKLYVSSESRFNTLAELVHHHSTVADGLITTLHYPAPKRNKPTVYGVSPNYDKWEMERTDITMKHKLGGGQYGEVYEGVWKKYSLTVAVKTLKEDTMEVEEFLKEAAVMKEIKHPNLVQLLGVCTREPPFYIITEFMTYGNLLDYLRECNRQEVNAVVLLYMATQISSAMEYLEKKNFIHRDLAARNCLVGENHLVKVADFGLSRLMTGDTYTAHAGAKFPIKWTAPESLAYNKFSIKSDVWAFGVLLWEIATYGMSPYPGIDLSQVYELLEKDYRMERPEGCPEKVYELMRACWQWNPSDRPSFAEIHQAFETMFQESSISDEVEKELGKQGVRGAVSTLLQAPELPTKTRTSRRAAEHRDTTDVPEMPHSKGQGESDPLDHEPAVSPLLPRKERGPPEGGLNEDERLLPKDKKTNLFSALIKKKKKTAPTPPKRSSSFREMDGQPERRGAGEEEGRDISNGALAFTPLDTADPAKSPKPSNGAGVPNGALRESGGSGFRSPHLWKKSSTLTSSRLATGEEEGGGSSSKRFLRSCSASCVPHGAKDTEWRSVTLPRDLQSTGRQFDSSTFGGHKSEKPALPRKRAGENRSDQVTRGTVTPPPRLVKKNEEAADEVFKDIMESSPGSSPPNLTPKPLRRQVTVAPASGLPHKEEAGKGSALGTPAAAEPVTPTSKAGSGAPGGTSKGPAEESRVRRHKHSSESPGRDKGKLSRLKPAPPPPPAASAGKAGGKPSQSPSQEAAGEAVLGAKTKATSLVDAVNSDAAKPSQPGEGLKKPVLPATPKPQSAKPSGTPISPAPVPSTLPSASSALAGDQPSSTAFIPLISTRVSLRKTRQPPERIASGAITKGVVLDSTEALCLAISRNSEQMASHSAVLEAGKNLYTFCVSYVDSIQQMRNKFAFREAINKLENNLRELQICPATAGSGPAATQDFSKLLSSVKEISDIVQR
Procedure: Wild type c-Abl was purchased from Panvera (P3049). Biotinylated peptide for the Abl kinase assay was obtained from Synpep (Biotin-NH-[…]-COOH). Homogeneous fluorescence resonance energy transfer kinase assays were performed using the europium/APC detection format (LANCE, Perkin Elmer). Abl enzyme (2.5 ng c-Abl) was mixed with biotinylated peptide (final concentration 2 μM), 50 mM Hepes (pH 7.5), 10 mM MgCl2, 20 ug/ml BSA, and 0.001% Brij-35 (Sigma). Compound was added with a final DMSO concentration of 1%, and incubated for ten minutes at 27° C. The kinase reaction was initiated by addition of ATP to a final concentration of 100 μM, and incubated for 30 minutes at 27° C. The reaction was stopped with EDTA at a final concentration of 30 mM EDTA/25 mM Hepes (pH 7.5)/10 μg/ml BSA. The mixture was combined with Eu-labeled phosphotyrosine antibody PT66 (Perkin Elmer, AD0068) and Streptavidin Surelight-APC (Perkin Elmer, CR130-100) in 50 mM Hepes (pH 7.5)/20 μg/ml BSA, and incubated for 30 minutes according to manufacturer's specifications. The reaction was monitored on a Wallac Victor with excitation at 340 nm and emission at 665 nm. Data was analyzed with the LSW data analysis plug-in for Excel (Microsoft).

K562 Cells = experiment: K562 cell assay; format: cell-based; conditions: Homo sapiens
Procedure: (§1) The cell assays were performed as noted in Cancer Research 63, 375-381 (2003).

KU812 Cells = experiment: KU812 cell assay; format: cell-based; conditions: Homo sapiens
Procedure: as §1

HT29 cells = experiment: HT29 Xenograft Assay; format: in vivo; conditions: 100 mg/kg oral gavage once a day for 14 days; at day 14; female nude mice
Procedure: All animal studies were conducted under an approved Institutional Animal Care and Use Committee protocol. HT29 cells were suspended to 50 million cells/ml and 0.2 ml of the cell suspension was injected into 6-7 weeks old female nude mice (Charles River, Wilmington, Mass.). […] At day 14 the T/C (growth of tumors in treated animals/growth of tumors in control animals) was 0.53.

[3] = target: T3, Rat2 fibroblasts stably transformed with v-Src/Hu Lck fusion gene (Homo sapiens, UniProt P06239, cells depend on it, form not given); experiment: Anchorage Independent Lck-transformed Fibroblast Proliferation Assay; format: cell-based, rat; conditions: suspension growth, MTS on Day 5; multiple entries = tested multiple times; read-out: Lck cells IC50
T3 construct: fused on or other part: v-Src of Rous sarcoma virus outside the catalytic domain (N-terminal unique/SH3/SH2 region and C-terminal tail); candidates are Schmidt-Ruppin A (P00524) and Prague C (P00526)
T3 sequence (P06239 whole entry, change not shown, the tested form may be a part): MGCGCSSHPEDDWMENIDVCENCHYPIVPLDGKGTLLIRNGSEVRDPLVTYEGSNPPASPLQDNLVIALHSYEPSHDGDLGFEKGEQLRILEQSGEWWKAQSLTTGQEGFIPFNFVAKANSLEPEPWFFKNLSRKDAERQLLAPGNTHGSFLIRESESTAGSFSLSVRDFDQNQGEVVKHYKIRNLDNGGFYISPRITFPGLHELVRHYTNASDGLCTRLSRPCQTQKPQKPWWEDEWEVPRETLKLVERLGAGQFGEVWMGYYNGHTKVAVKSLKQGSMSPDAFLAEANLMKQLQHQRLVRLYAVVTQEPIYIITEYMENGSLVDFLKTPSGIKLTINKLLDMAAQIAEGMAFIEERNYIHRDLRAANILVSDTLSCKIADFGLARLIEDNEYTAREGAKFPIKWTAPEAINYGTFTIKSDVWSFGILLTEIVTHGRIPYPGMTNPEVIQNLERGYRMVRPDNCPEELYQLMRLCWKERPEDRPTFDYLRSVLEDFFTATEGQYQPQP
Excerpt: Rat2 fibroblasts stably transformed with a plasmid containing a CMV promotor controlled v-Src/Hu Lck fusion gene in which the catalytic domain of human Lck was inserted in place of the v-Src catalytic domain in the v-Src gene are used for the measurement of src dependent suspension growth.

[4] = 100 μM ATP, multiple entries = tested multiple times, read-out: Src enzyme IC50
[5] = single value, read-out: Src Enzyme IC50
[6] = single value, read-out: Src Cell IC50
[7] = suspension growth, MTS on Day 5, multiple entries = tested multiple times, read-out: Src cells IC50

T1 sequence (P12931 whole entry): as the sequence (P12931 whole entry, stated change not applied, the tested form may be a part) above

Compound | IC50 [1, 4] | melting point | GI50 [3] | also measured
COc1cc(Nc2c(C#N)cnc3cc(-c4coc(CN5CCN(C)CC5)c4)c(OC)cc23)c(Cl)cc1Cl [Example 1] | 1 nM and 0.6 nM and 0.7 nM | 179 to 181 °C | – | IC50 [1, 5]: 0.8 nM; GI50 [2, 6]: 15 nM; GI50 [2, 7]: 16 nM; IC50 (Wild type c-Abl): 0.4 nM and 0.27 nM and 0.25 nM; IC50 (K562 Cells): 5.6 nM; IC50 (KU812 Cells): 6 nM; T/C (growth of tumors in treated animals/growth of tumors in control animals) (HT29 cells): 0.53
COc1ccc(N2CCN(Cc3cc(-c4cc5ncc(C#N)c(Nc6cc(OC)c(Cl)cc6Cl)c5cc4OC)co3)CC2)c(OC)c1 [Example 5, 4-[(2,4-Dichloro-5-methoxyphenyl)amino]-6-methoxy-7-(5-{[4-(2,4-dimethoxyphenyl)piperazin-1-yl]methyl}-3-furyl)-3-quinolinecarbonitrile] | 3.5 nM and 3.1 nM | 223 to 225 °C | 246 nM and 203 nM and 239 nM | GI50 [2, 7]: 19 nM and 17 nM
COc1cc(Nc2c(C#N)cnc3cc(-c4coc(CN5CCN(c6ccccc6)CC5)c4)c(OC)cc23)c(Cl)cc1Cl [Example 4, 4-[(2,4-Dichloro-5-methoxyphenyl)amino]-6-methoxy-7-{5-[(4-phenylpiperazin-1-yl)methyl]-3-furyl}-3-quinolinecarbonitrile] | – | 201 to 203 °C | 353 nM and 447 nM | –
COc1cc(Nc2c(C#N)cnc3cc(-c4coc(CN5CCOCC5)c4)c(OC)cc23)c(Cl)cc1Cl [Example 3, 4-[(2,4-Dichloro-5-methoxyphenyl)amino]-6-methoxy-7-[5-(morpholin-4-ylmethyl)-3-furyl]-3-quinolinecarbonitrile] | – | 164 to 166 °C | – | –
COc1cc(Nc2c(C#N)cnc3cc(-c4coc(CN(C)C)c4)c(OC)cc23)c(Cl)cc1Cl [Example 2, 4-[(2,4-Dichloro-5-methoxyphenyl)amino]-6-methoxy-7-{5-[(dimethylamino)methyl]-3-furyl}-3-quinolinecarbonitrile] | – | 133 to 138 °C | 11 nM | –
COCCN1CCN(Cc2cc(-c3cc4ncc(C#N)c(Nc5cc(OC)c(Cl)cc5Cl)c4cc3OC)co2)CC1 [Example 30, 4-[(2,4-dichloro-5-methoxyphenyl)amino]-6-methoxy-7-(5-{[4-(2-methoxyethyl)piperazin-1-yl]methyl}-3-furyl)quinoline-3-carbonitrile] | 1.9 nM and 1.7 nM | – | – | –
COc1cc(Nc2c(C#N)cnc3cc(-c4coc(CN5CCN(c6ccc(C)cc6)CC5)c4)c(OC)cc23)c(Cl)cc1Cl [Example 22, 4-[(2,4-dichloro-5-methoxyphenyl)amino]-6-methoxy-7-(5-{[4-(4-methylphenyl)piperazin-1-yl]methyl}-3-furyl)quinoline-3-carbonitrile] | 12.8 nM and 14.3 nM | – | – | –
COc1cc(Nc2c(C#N)cnc3cc(-c4coc(CN5CC[S+]([O-])CC5)c4)c(OC)cc23)c(Cl)cc1Cl [Example 18, 4-[(2,4-dichloro-5-methoxyphenyl)amino]-6-methoxy-7-{5-[(1-oxidothiomorpholin-4-yl)methyl]-3-furyl}quinoline-3-carbonitrile] | 1.5 nM and 2.4 nM | – | – | –
c1ccsc1 [thiophene, reference compound] | – | – | – | IC50 [1, 5]: 3.7 nM; GI50 [2, 6]: 94 nM
